ChEMBL document CHEMBL1142452, “Pyrazolidine-3,5-dione derivatives as potent non-steroidal agonists of farnesoid X receptor: virtual screening, synthesis, and biological evaluation” (Bioorg Med Chem Lett, 2008)
The source made the active and inactive calls. No cut-off for these calls is given here.

What was measured:
Bile acid receptor = molecular target: T1, Bile acid receptor (Homo sapiens, UniProt Q96RI1); assay: Agonist activity at FXR assessed as activation by cell based luciferase transactivation assay; type: functional
T1 sequence (Q96RI1 whole entry): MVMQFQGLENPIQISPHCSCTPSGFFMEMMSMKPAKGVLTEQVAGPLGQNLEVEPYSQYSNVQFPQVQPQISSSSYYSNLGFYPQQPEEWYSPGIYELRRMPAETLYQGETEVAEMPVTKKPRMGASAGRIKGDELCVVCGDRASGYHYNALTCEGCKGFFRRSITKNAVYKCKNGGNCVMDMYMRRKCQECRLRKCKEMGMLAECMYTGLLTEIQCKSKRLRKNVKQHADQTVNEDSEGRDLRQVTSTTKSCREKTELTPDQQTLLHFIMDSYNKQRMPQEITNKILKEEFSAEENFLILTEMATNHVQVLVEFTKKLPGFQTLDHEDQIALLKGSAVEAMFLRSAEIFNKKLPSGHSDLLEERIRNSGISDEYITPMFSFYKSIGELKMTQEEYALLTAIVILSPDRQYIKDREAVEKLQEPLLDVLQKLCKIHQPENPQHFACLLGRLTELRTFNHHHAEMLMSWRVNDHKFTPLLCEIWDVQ

[1] = molecular target: T2, Bile acid receptor (Homo sapiens) (UniProt Q96RI1); assay: Agonist activity at FXR assessed as activation by cell based luciferase transactivation assay at less than 5 uM; type: functional
T2 sequence (whole entry): T1 sequence (Q96RI1 whole entry)

EC50 (Bile acid receptor) [µM] | Activity [1] | Compound
3.98 |  | O=C1NN(C(=O)c2ccccc2)C(=O)/C1=C/c1ccc(OCc2ccccc2)cc1
6.17 |  | CCOC(=O)C(=Cc1ccc(OCc2ccccc2)cc1)C(=O)OCC
1.86 | Active | Cc1cccc(COc2cccc(/C=C3\C(=O)NN(C(=O)c4ccc(F)cc4)C3=O)c2)c1
3.31 |  | O=C1NN(C(=O)c2ccco2)C(=O)/C1=C/c1ccc(OCc2ccccc2)cc1
5.37 |  | Cc1cccc(COc2cccc(/C=C3\C(=O)NN(c4ccccc4[N+](=O)[O-])C3=O)c2)c1
2.4 | Active | Cc1cccc(COc2cccc(/C=C3\C(=O)NN(C(=O)c4ccncc4)C3=O)c2)c1
4.27 |  | O=C1C(=Cc2cccc([N+](=O)[O-])c2)C(=O)N(c2ccccc2)N1c1ccccc1
5.15 |  | Cc1cccc(COc2cccc(/C=C3\C(=O)NN(c4ccccc4)C3=O)c2)c1
6.31 | Active | O=C1C(=Cc2ccc(OCc3ccccc3)cc2)C(=O)N(c2ccccc2)N1c1ccccc1
4.79 |  | O=C1NN(c2ccccc2)C(=O)/C1=C/c1cccc(OCc2cccc(F)c2)c1
6.92 |  | O=C1NN(c2ccccc2)C(=O)/C1=C/c1cccc(OCc2cccc(C(F)(F)F)c2)c1
2.04 | Active | O=C1NN(c2ccccc2)C(=O)/C1=C/c1cccc(OCc2ccc(C(F)(F)F)cc2)c1
